Earlier results as cited in patent US5801147A, “Polypeptides and use thereof” (Takeda Chemical Industries, Ltd., priority 1991, dated 1998).
No end group written: not given here.

System: hypophysis cells
Details: prior art
In the case of “PACAP27: a polypeptide consisting of 27 amino acid residues on the N-terminal side of PACAP38 (HSDGIFTDSYSRYRKQMAVKKYLAAVL; ends and bridges not checked; UniProt P18509 132-158, looked up)”, the “c-AMP-producing activity (background statement)” value (“c-AMP-producing activity” for short) is given as “The activity of PACAP38 has also been found”.
In the case of “PACAP26: polypeptide consisting of 26 amino acid residues on the N-terminal side of PACAP38 (HSDGIFTDSYSRYRKQMAVKKYLAAV; ends and bridges not checked; UniProt P18509 132-157, looked up, fragment)”, the “c-AMP-producing activity” value is listed as “the same activity as that of PACAP27”.
In the case of “PACAP25: polypeptide consisting of 25 amino acid residues on the N-terminal side of PACAP38 (HSDGIFTDSYSRYRKQMAVKKYLAA; ends and bridges not checked; UniProt P18509 132-156, looked up, fragment)”, the “c-AMP-producing activity” value is given as “the same activity as that of PACAP27”.
For “PACAP38: polypeptide consisting of 38 amino acid residues, discovered in humans, sheep and rats (SEQ ID NO:1) (HSDGIFTDSYSRYRKQMAVKKYLAAVLGKRYKQRVKNK; ends and bridges not checked)”, the “c-AMP-producing activity” value is listed as “enhances the production of intracellular c-AMP in hypophysis cells”.
For “PACAP24: polypeptide consisting of 24 amino acid residues on the N-terminal side of PACAP38 (HSDGIFTDSYSRYRKQMAVKKYLA; ends and bridges not checked; UniProt P18509 132-155, looked up, fragment)”, the “c-AMP-producing activity” value is listed as “the same activity as that of PACAP27”.
For “PACAP23: polypeptide consisting of 23 amino acid residues on the N-terminal side of PACAP38 (HSDGIFTDSYSRYRKQMAVKKYL; ends and bridges not checked; UniProt P18509 132-154, looked up, fragment)”, the “c-AMP-producing activity” value is given as “the same activity as that of PACAP27”.
